Measurements as given in patent US12209142B2, “SARS-CoV-2 epitope-targeted peptide immunostimulants” (Institute for Systems Biology, priority 2020, dated 2025).
Entries after “also recorded” stand apart in the source; their conditions may differ. Where a SMILES comes first, the peptide text is derived from it. Bridges are numbered along the chain shown (N, C = ends). Triazole bridges read from a SMILES are 1,4-linked. [ ]: non-standard residue; d: D form. The star is where a group is joined. Biotin = O=C1N[C@H]2[C@H](CS[C@H]2CCCCC(=O)*)N1; Lys(N3) = [N-]=[N+]=NCCCC[C@H](N)C(=O)O; PEG5 = NCCOCCOCCOCCOCCOCCC(=O)O; Pra = C#CC[C@H](N)C(=O)O

What was measured:
[1] = system: Salmonella typhimurium (S. typhimurium) cells; assay: Whole-cell ELISA of biotinylated PCC binding; conditions: biotinylated PCC at 5 μM
Description: (§1) Whole-cell ELISAs. Detection of the binding of biotinylated PCCs to bacterial surface was performed as follows. 108 bacteria from a culture grown overnight were used for each test. Bacteria were incubated with PBS containing 1% BSA (PBS-BSA) for 1 h at 37° C., washed once with PBS, and then incubated with 5 μM of the biotinylated PCC in PBS-BSA for 1 h at 37° C. After washing thrice with PBS to remove unbound PCCs, bacteria were incubated with Streptavidin-HRP (1:1000) for 1 h at 37° C. Bacteria were washed thoroughly and the TMB reagent was added until visible coloration was observed. The reaction was quenched using 2N H2SO4 and absorbance was measured at 450 nm.

[2] = system: Escherichia coli (E. coli) cells; assay: Whole-cell ELISA of biotinylated PCC binding; conditions: biotinylated PCC at 5 μM
Description: as §1

[3] = system: K. pneumoniae cells (strain BAA 1705); assay: Gentamicin protection assay: phagocytosis and opsonophagocytic killing (OPK) by macrophages; format: cell-based, Klebsiella pneumoniae
In short: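 Strain BAA 1705 treated with DNP-conjugated EPIs (5 μM), opsonized with anti-DNP antibody, then given to murine bone-marrow macrophages at MOI 50 for 0.5 h at 37° C. Extracellular bacteria killed with gentamicin (100 μg/ml). Macrophages lysed at 1 h (phagocytosis) and 24 h (OPK); intracellular CFU counted on LB agar, in triplicate.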

[4] = system: MrkA synthetic epitopes (SynEp 1-4); assay: Epitope selectivity sandwich ELISA with immobilized SynEps; format: binding, Klebsiella pneumoniae; conditions: DNP-conjugated ligand at 500 nM, anti-DNP detection
Description: The particular epitope target to which cy(LLFFF) (SEQ ID NO:5) binds was next identified. A sandwich ELISA was performed in which the biotinylated SynEps were immobilized. The lead ligand cy(LLFFF) (SEQ ID NO:5), conjugated to a 2,4-dinitrophenyl (DNP) moiety, was titrated at a 500 nM concentration, and anti-DNP was used as a detection antibody. […] A background level for this assay was established using a biotinylated 6-mer polyethylene glycol (biotin-PEG6). […] As the native epitope for SynEp1 has a GRAVY score of 1.01, while the native versions of other SynEps range between −0.9 and −0.28, the negative ELISA signals may arise from the relatively high hydrophobicity of SynEp 1 versus others. The blocking may also result from the reactivity of the cysteine residue in SynEp 1. […] (SEQ ID NO:2) in native MrkA.
In vitro ELISA assays. ELISA assays for MrkA-binding and epitope selectivity were performed on clear NeutrAvidin Coated High Capacity Plates (ThermoFisher, 15507). The buffer used for all washes and to dissolve all compounds was TBST+0.1% BSA (TBS+0.05% Tween 20+0.1% BSA, pH 7.3) and, unless otherwise stated, steps were conducted at room temperature. Each wash involved a brief 20 s agitation, and all conjugation, blocking, and incubation steps were performed with gentle agitation over the entire stated time period. […]

In the case of `CC(C)C[C@@H]1NC(=O)[C@@H](NC(=O)CCOCCOCCOCCOCCOCCNC(=O)CCCC[C@@H]2SC[C@@H]3NC(=O)N[C@@H]32)Cc2cn(nn2)CCCC[C@@H](C(N)=O)NC(=O)[C@H](Cc2ccccc2)NC(=O)[C@H](Cc2ccccc2)NC(=O)[C@H](Cc2ccccc2)NC(=O)[C@H](CC(C)C)NC1=O` [cy(LLFFF)] ({Biotin-PEG5}-[Pra]LLFFF[Lys(N3)]-NH2; triazole 1-7; N-terminus and C-terminus assumed), the “whole-cell ELISA signal, S. typhimurium” value [1] is reported as “small absorbances; also recorded: only weak signals”, the “whole-cell ELISA signal, E. coli” value [2] is reported as “small absorbances; also recorded: only weak signals” and the “CFU at 6 hrs, DNP-conjugated EPI and anti-DNP antibody” value ([3]; macrophages harvested at 6 hrs) is reported as “more than 80,000 CFU”. The “cell counts at 6 hrs, DNP-conjugated EPI without antibody” value ([3]; macrophages harvested at 6 hrs) was ~35,000, the “colony counts at 24 h (OPK)” value ([3]; macrophages harvested at 24 h) was “little to no cell counts” and the “binding to synthetic epitopes (SynEp selectivity)” value [4] was “preferably bind synthetic epitope 2; also recorded: highest signals from SynEp 2; also recorded: selectively binds synthetic epitope 2 versus other targeted epitopes”.
